Experiments:
Format in all cases: binding
Fibrinogen = experiment: SPR adsorption of protein on monolayers: fibrinogen; details: for amount of protein that remains adsorbed to the SAM (Fibrinogen): protein 0.5 mg/ml in PBS pH 7.6, SAM on gold
Method: (§1) Two experimental procedures were used to evaluate the monolayers as inert surfaces. Surface plasmon resonance (SPR) spectroscopy measures the adsorption of protein to the monolayer. All SPR experiments were performed on a BIAcore 1000 instrument. Substrates were glued into plastic BIACore cassettes with a two-part epoxy (DEVCON). Phosphate-buffered saline (PBS; 10 mM phosphate, 150 mM sodium chloride, pH 7.6) was degassed under vacuum and all protein solutions were filtered through 0.45-μm filters before use. SPR is well suited for characterization of protein adsorption because it measures adsorption in situ and can detect weak, readily reversible protein adsorption. For all monolayers, a panel of five proteins that spanned a range in molecular weight and pI were investigated.
Protein adsorption and cell attachment on four different monolayers was compared. Gold films were prepared by evaporation of titanium (1.5 nm) and then gold (40 nm) onto glass cover slips (0.20 mm, No. 2, Corning). The SAMs were prepared by immersing gold films of approximately 1 cm^2 in ethanolic solutions of alkanethiol (2 mM) for 9 hours. The SAMs were rinsed with ethanol and dried with nitrogen before use. As a control monolayer that is not inert, a SAM of hexadecanethiolate that presents hydrophobic methyl groups at the surface were used. Monolayers terminated in the tri(ethylene glycol) group were used as the current standard for inert surfaces. Each of the two additional monolayers presents the mannitol group and differs only in the length of alkyl chain to which the mannitol group is appended. [drawing 9]
SPR was used to measure the adsorption of five proteins—fibrinogen, pepsin, lysozyme, insulin, and trypsin—to the four monolayers. SPR measures changes in the refractive index of a solution near the interface with a gold film by measuring changes in the angle (ΔΘm) at which p-polarized light reflected from the glass/gold interface has a minimum in intensity. SAMs were mounted in a flow cell and experiments were performed by first flowing a phosphate buffered saline (PBS) through the cell for 5 minutes, then a solution of protein in the same buffer (0.5 mg/ml) for 5 minutes, and then PBS for 5 minutes. The rise in ΔΘm upon introduction of the protein solution has two contributions. […] The second contribution is due to the adsorption of protein to the SAM. The amount of protein that adsorbs irreversibly to the SAM is determined by comparing the shift in Θm before and after the SAM is exposed to protein. An increase in Θm of 0.1° corresponds to an increase in density of adsorbed protein of 1 ng/mm^2.

Insulin = experiment: SPR adsorption of protein on monolayers: insulin; details: protein 0.5 mg/ml in PBS pH 7.6, SAM on gold
Method: as §1
(§2) Protein adsorption and cell attachment on four different monolayers was compared. Gold films were prepared by evaporation of titanium (1.5 nm) and then gold (40 nm) onto glass cover slips (0.20 mm, No. 2, Corning). […]
(§3) SPR was used to measure the adsorption of five proteins—fibrinogen, pepsin, lysozyme, insulin, and trypsin—to the four monolayers. […] The amount of protein that adsorbs irreversibly to the SAM is determined by comparing the shift in Θm before and after the SAM is exposed to protein. […]

Lysozyme = target: T1, Lysozyme (Homo sapiens, UniProt P61626); experiment: SPR adsorption of protein on monolayers: lysozyme; details: protein 0.5 mg/ml in PBS pH 7.6, SAM on gold
T1 sequence (P61626 19-148): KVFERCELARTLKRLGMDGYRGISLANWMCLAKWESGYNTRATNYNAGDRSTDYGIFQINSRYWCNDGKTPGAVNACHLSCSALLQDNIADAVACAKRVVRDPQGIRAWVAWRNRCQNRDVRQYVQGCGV
Method: as §1, §2, §3

Pepsin = Pepsin (Homo sapiens, UniProt P0DJD8); experiment: SPR adsorption of protein on monolayers: pepsin; details: protein 0.5 mg/ml in PBS pH 7.6, SAM on gold
Sequence of Pepsin (P0DJD8 63-388): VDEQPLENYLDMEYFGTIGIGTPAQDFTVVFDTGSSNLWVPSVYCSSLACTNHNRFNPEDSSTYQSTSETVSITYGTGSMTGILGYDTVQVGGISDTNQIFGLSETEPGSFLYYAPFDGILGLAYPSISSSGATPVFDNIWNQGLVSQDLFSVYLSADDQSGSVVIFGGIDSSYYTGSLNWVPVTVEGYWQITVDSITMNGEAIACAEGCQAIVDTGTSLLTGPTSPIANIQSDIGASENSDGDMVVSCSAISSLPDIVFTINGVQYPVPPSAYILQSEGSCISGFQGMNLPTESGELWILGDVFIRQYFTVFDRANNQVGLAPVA
Method: as §1, §2, §3

Trypsin = experiment: SPR adsorption of protein on monolayers: trypsin; details: protein 0.5 mg/ml in PBS pH 7.6, SAM on gold
Method: as §1, §2, §3

CCCCCCCCCCCCCCCCS [HDT, hexadecanethiolate]
adsorption of fibrinogen to the SAM (in words) (Fibrinogen; FIG. 1): A complete monolayer of protein adsorbs
change in Θm on adsorption of fibrinogen (Fibrinogen; FIG. 1): 0.35 °
amount of protein that remains adsorbed to the SAM (Fibrinogen) (Fibrinogen): 3,432 pg/mm^2
amount of protein that remains adsorbed to the SAM (Fibrinogen) (Fibrinogen; listed as hexadecanethiolate): 3,500 pg/mm^2
amount of protein that remains adsorbed to the SAM (Insulin) (Insulin): 688 pg/mm^2
amount of protein that remains adsorbed to the SAM (Lysozyme) (Lysozyme): 1,023 pg/mm^2
amount of protein that remains adsorbed to the SAM (Pepsin) (Pepsin): 1,337 pg/mm^2
amount of protein that remains adsorbed to the SAM (Trypsin) (Trypsin): 661 pg/mm^2

Source: patent publication US20050255582A1, “Surface modifying composition” (Arch Development Corporation:, priority 2000, published 2005)
